Results from patent US8193377B2, “(−)-epigallocatechin gallate derivatives for inhibiting proteasome” (The Hong Kong Polytechnic University, priority 2004, dated 2012).
Read-outs that look alike come from different tables or passages of the source.

Legend:
[1] = Stability test in RPMI 1640 culture medium, HPLC; details: 0.1 mM in RPMI, 37° C., pH around 8
Procedure: The stability of 1 with (−)-EGCG in a culture medium (RMPI) is compared, which mimics the body fluid with a pH value around 8. (−)-EGCG or 1 at 0.1 mM was incubated in 1 mL RMPI at 37° C. at indicated times. At different time points, the medium was analyzed by HPLC for the amount of tested compound remaining.

[2] = molecular target: 20S prokaryotic proteasome (UniProt Q9P992); experiment: Table 2: effects of tea polyphenols on 20S prokaryotic proteasome activities; format: biochemical; details: Table 2, This work
20S prokaryotic proteasome, sequence (Q9P992 whole entry): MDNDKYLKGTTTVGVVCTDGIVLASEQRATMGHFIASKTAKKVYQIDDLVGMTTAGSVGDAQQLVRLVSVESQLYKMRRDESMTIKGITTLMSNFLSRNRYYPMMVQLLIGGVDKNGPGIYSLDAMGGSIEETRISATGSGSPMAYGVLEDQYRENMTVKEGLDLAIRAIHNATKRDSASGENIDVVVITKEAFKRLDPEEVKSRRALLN
Procedure: To further examine the effects of B-ring —OH group deletion on proteasome-inhibitory and cell death-inducing abilities, we synthesized several novel EGCG analogs with eliminated —OH groups on the B-ring as well as their putative prodrugs, the peracetate-protected counterparts. By using a purified 20S proteasome and a chymotrypsin-like fluorogenic substrate, the proteasome-inhibitory effects of the following unprotected polyphenol analogs are determined: […]

[3] = molecular target: T1, proteasomal chymotrypsin-like activity in Jurkat T cells (Homo sapiens, UniProt P28074); experiment: Proteasomal chymotrypsin-like activity in intact Jurkat T cells / their lysates; format: cell-based; details: 24 h, Jurkat T
T1 construct: measurement of the proteasomal chymotrypsin-like activity in the prepared lysates; endogenous in cells; host or cells: Jurkat T cells (human leukemia)
T1 sequence (P28074 60-263): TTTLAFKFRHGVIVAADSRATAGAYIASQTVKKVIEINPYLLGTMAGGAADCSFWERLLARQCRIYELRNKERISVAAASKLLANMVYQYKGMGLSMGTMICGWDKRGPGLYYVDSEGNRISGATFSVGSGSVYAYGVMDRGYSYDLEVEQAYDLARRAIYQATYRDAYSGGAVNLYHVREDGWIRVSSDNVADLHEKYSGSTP
Procedure: VA-13 or WI-38 cells were grown in 24 well plates (2 ml/well) to 70-80% confluency, followed by 24 h treatment with […] (−)-EGCG, 2, or 2a. […] Suc-Leu-Leu-Val-Tyr-AMC substrate was then added for 2.5 h at 37° C. and the chyrnotrypsin-like activity was measured as described above. Alternatively, cells were treated with each compound at 25 μM for 4 or 24 h, and harvested and lysed. Suc-Leu-Leu-Val-Tyr-AMC (40 μM) was then incubated with the prepared cell lysates for 2.5 h and the chymotrypsin-like activity was measured as described above.
If 1 converts to (−)-EGCG inside the cells, proteasome inhibition in vivo should be detected. To examine this possibility, human Jurkat cells was treated with 25 μM of 1 or (−)-EGCG for 12 or 24 h, followed by measurement of proteasome activity by using a chymotrypsin-like specific fluorogenic substrate in intact cells (FIG. 6a) or Western blot for ubiquinated proteins (FIG. 6b). […] To analyze the intracellular level of polyubiquitinated proteins, cells were lysed after 12 hours incubation and subjected to Western blotting. […] It is possible that the amount of EGCG generated from 1, and thus its biological activity inside the cells depends on a combination of factors: the relative permeability of 1 into the cells, the amount of esterase enzymes and the amount of anti-oxidants that may be present in the cells at any time.
To determine whether the unprotected and protected polyphenol analogs could inhibit the proteasomal activity in intact cells, leukemia Jurkat T cells were treated with each compound at 25 μM for 4 and 24 h, followed by collection of cell pellets and measurement of the proteasomal chymotrypsin-like activity in the prepared lysates.

YT cells = experiment: Western blot in non-transformed natural killer YT cells compared with Jurkat T cells; format: cell-based, human; details: 25 μM, 24 h
LNCaP cells [4] = experiment: Soft agar colony formation assay; format: cell-based, human; details: 25 μM once at plating, 21 days
VA-13 cells = experiment: Nuclear staining (Hoechst) for apoptotic morphology, VA-13; format: cell-based, human; details: 25 μM
Procedure: After each drug treatment, both detached and attached VA-13 and WI-38 cells were stained Hoechst 33342 to assess for apoptosis. Briefly, cells were washed 2× in PBS, fixed for 1 h with 70% ethanol at 4° C., washed 3× in PBS, and stained with […] Hoechst for 30 min in the dark at room temperature. Detached cells were plated on a slide and attached cells were visualized on the plate with a fluorescent microscope at 10× or 40× resolution (Zeiss, Germany). Digital Scientific obtained images with AxioVision 4.1 and adjusted using Adobe Photoshop 6.0.
Next, apoptotic nuclear morphology is examined after treatment with natural (−)-EGCG, 2, and 2a (FIG. 12B). […] A comparison among all the protected analogs was then performed using 25 μM for 24 h. […] All of the protected analogs induced apoptosis in transformed (VA-13), but not normal (WI-38) cells (FIGS. 12B and 12C).

Jurkat T cells = experiment: Trypan blue cell death assay in Jurkat T cells; format: cell-based, human; details: 10 μM, 24 h
[5] = molecular target: T2, purified rabbit 20s proteasome (Oryctolagus cuniculus, UniProt G1T4Q9); experiment: Inhibition of chymotrypsin-like activity of purified 20S proteasome; format: biochemical
T2 construct: purchased Boston Biochem (Cambridge, Mass.)
T2 sequence (G1T4Q9 1-263): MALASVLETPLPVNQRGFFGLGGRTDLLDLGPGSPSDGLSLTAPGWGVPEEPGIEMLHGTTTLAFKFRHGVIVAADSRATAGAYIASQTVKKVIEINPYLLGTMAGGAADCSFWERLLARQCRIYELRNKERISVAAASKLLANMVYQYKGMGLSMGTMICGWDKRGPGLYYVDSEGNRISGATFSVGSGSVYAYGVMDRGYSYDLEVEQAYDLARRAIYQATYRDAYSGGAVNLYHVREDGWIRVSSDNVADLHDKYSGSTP
Procedure: Measurement of the chyrnotrypsin-like activity of the 20s proteasome was performed by incubating 0.5 μg of purified rabbit 20s proteasome with 40 μM fluorogenic peptide substrate, Suc-Leu-Leu-Val-Tyr-AMC, with or without various concentrations of natural and synthetic tea polyphenols as described previously (Nam S et. al.).
In order to test this hypothesis, proteasome activity was tested both in vitro and in intact Jurkat T cells with either 1 or (−)-EGCG (as a positive control). First, 1 and commercial (−)-EGCG were dissolved in DMSO and their effects on the chymotrypsin-like activity of purified 20S proteasomes were measured. […] In contrast, (−)-EGCG at 10 μM inhibited 80-90% of the proteasomal chymotrypsin-like activity. Therefore, as predicted, 1 outside of a cellular system is not a proteasome inhibitor.
Up to 25 μM of all protected and unprotected compounds were incubated with a purified 20s proteasome and a fluorogenic substrate for chyrnotrypsin activity for 30 min. The half-maximal inhibitory concentration or IC50 was then determined. […] This is consistent with the results above.

[6] = tested on: phosphorylated Akt (p-Akt); experiment: Western blot for phosphorylated Akt in Jurkat T cells; format: cell-based, human; details: 25 μM, 24 h
Procedure: (−)-EGCG and 1 were incubated with Jurkat T cells for 24 h at 5, 10 and 25 μM, followed by Western blot analysis using a specific antibody to phosphorylated Akt (FIG. 7). […] Actin was used as a loading control.

LNCaP cells [7] = experiment: Apoptotic morphological changes, phase contrast; format: cell-based, human; details: 25 μM, 24 h
[8] = rats given 56 mg orally; cited from earlier work
[9] = tested on: caspase-3 activity in Jurkat T cells; experiment: Induction of caspase-3 activity (Ac-DEVD-AMC) in Jurkat T cells; format: cell-based, human; details: 25 μM, 4 h
Procedure: Cells were treated with each compound at 25 μM for 4 or 24 h, and then harvested and lysed. Ac-DEVD-AMC (40 μM) was added to the cell lysates for 2.5 h and the caspase-3 activity.
To determine if the cell death observed (FIG. 16) was due to the induction of apoptosis, a similar experiment was performed in Jurkat T cells, followed by measurement of caspase-3 activation and PARP cleavage.

[10] = Suc-Leu-Leu-Val-Tyr-AMC, 2 h incubation, Table 1, read-out: IC50 (μM), unprotected

O=C(O[C@@H]1Cc2c(O)cc(O)cc2O[C@@H]1c1cc(O)c(O)c(O)c1)c1cc(O)c(O)c(O)c1 [(−)-EGCG, (−)-epigallocatechin-3-gallate, reference compound]
time within which compound degraded in culture medium [1]: ≤ 20 min | IC50 [2]: 300 nM | inhibition at 25 µM ([3]; Jurkat, read-out: inhibition of proteasome activity in intact cells): 31% | apoptosis (PARP cleavage), Jurkat T versus YT cells (YT cells): only Jurkat cells underwent apoptosis | colony formation in soft agar (LNCaP cells [4]): significant decrease in colony formation | apoptotic nuclear morphology (VA-13 cells; 24 h): little or no apoptosis | apoptotic nuclear morphology (VA-13 cells; 36 h): did initiate apoptosis | cell death (Jurkat T cells): 5% | inhibition at 10 µM ([5]; 10 μM, purified 20S proteasome, read-out: inhibition of proteasomal chymotrypsin-like activity): 80 to 90% | IC50 [5, 10]: 0.3 µM | IC50 ([5]; up to 25 μM, 30 min incubation, read-out: IC50): 0.2 µM | reduction of p-Akt level (densitometry) [6]: 32% | apoptotic morphological changes (LNCaP cells [7]): enlarged, flattened cells | fraction of (−)-EGCG absorbed [8]: 0.012%

O=C(O[C@@H]1Cc2c(O)cc(O)cc2O[C@@H]1c1ccc(O)cc1)c1cc(O)c(O)c(O)c1 [Compound 6, (−)-(2R,3R)-5,7-dihydroxy-2-(4-hydroxyphenyl)chroman-3-yl 3,4,5-trihydroxybenzoate]
IC50 [2]: 2690 nM | inhibition of chymotrypsin-like activity in lysates of treated cells ([3]; 25 μM): 30% | increase in caspase-3 activity [9]: 4 fold | IC50 [5, 10]: 2.69 µM
